Values quoted from earlier work in US20110229418A1, “Compositions and Methods of Treating and Preventing Lung Cancer” (priority 2010, published 2011).
Like-named read-outs stand apart in the source and are kept apart here.

Assays:
[1] = system: Lewis lung LLC1 cells; conditions: mice injected with Lewis lung LLC1 cells, orally administered
[2] = patients with type 2 diabetes, compared with those that did not use metformin
[3] = long-term treatment
[4] = system: AMP activated protein kinase (AMPK) pathway
[5] = system: human lung cancer cells
[6] = system: lung cancer cell; conditions: in vitro
[7] = system: lung cancer cell; conditions: in vivo
[8] = system: tobacco carcinogen-induced lung tumorigenesis; conditions: mice

## CN(C)C(=N)N=C(N)N [metformin]
[1]; control diet
  tumor growth: no effect on tumor growth
[1]; high-energy diet
  tumor growth: reduce tumor growth
[2]
  cancer mortality: lower cancer mortality
[3]
  adverse effects: few adverse effects
[4]
  AMPK pathway activation: activates the AMP activated protein kinase (AMPK) pathway
[5]
  sensitization to ionizing radiation: sensitizes human lung cancer cells to ionizing radiation
[6]
  lung cancer cell growth: inhibited
[7]
  lung cancer cell growth: inhibited
[8]
  tobacco carcinogen-induced lung tumorigenesis: prevents tobacco carcinogen-induced lung tumorigenesis
